PMC1950558 (Nucleic Acids Research, 2007)
Read-outs that look alike come from different tables or passages of the source.

Assays:
phosphoglycerate kinase = conditions: conversion of L-dTDP into L-dTTP; cited from earlier work
[1] = target: T1, human AMP kinase 1 (hAK1, cytosolic adenylate kinase) (Homo sapiens, UniProt P00568); assay: coupled spectrophotometric NMP kinase assay, hAK1; type: biochemical; conditions: for Km: hAK1, 37°C, 1 mM ATP, – = Non detectable; for phosphorylation (in words): hAK1
T1 sequence (P00568 1-194): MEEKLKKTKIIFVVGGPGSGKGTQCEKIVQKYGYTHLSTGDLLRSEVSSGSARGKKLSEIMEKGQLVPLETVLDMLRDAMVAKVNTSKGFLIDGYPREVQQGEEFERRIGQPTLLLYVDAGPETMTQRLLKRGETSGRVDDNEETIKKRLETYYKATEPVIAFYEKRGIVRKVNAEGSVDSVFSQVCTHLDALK

[2] = target: T2, human UMP-CMP kinase (hUCK) (Homo sapiens, UniProt P30085); assay: coupled spectrophotometric NMP kinase assay, hUCK; type: biochemical; conditions: for Km: 37°C, 1 mM ATP; for Relative Vmax: relative to kcat of D-CMP (100 = kcat 130 s^−1)
T2 sequence (P30085 1-196): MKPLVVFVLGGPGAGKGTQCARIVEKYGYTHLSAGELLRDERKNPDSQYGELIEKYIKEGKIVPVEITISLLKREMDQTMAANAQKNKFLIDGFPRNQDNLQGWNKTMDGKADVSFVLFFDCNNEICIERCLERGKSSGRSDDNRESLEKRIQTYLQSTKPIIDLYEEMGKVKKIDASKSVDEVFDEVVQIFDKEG

hTK2 = conditions: first phosphorylation of L-dT by hTK2; cited from earlier work
hdCK = conditions: first phosphorylation of L-dT by hdCK; cited from earlier work
hTMPK = target: T3, hTMPK (Homo sapiens, UniProt P23919); assay: fluorescence competition assay with MABA-dTDP; type: binding
T3 sequence (P23919 1-212): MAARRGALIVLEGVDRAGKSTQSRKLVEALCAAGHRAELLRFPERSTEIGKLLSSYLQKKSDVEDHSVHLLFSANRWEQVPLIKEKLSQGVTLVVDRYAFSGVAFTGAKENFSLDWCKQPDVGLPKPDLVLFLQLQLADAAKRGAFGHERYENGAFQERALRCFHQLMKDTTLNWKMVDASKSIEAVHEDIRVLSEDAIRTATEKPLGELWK

[3] = tested on: Nc1ncnc2c1ncn2[C@@H]1C[C@@H](O)[C@H](COP(=O)(O)O)O1; assay: purified protein, by the assay type; conditions: other: hAK2; – = Non detectable
[4] = tested on: Nc1ccn(C2OC(COP(=O)(O)O)C(O)C2O)c(=O)n1; assay: purified protein, by the assay type; conditions: other: hAK2, 37°C, 1 mM ATP; – = Non detectable; 37.0 °C
[5] = target: human AMP kinase 2 (hAK2, mitochondrial adenylate kinase) (Homo sapiens, UniProt P54819); assay: coupled spectrophotometric NMP kinase assay, hAK2; conditions: for Km: hAK2, 37°C, 1 mM ATP, – = Non detectable; for phosphorylation (in words): hAK2
[6] = target: T4, human dTMP kinase (hTMPK) (Homo sapiens, UniProt P23919); assay: coupled spectrophotometric NMP kinase assay, hTMPK; type: biochemical
T4 sequence (P23919 1-212): T3 sequence (P23919 1-212)

[7] = target: T2, human UMP-CMP kinase (hUCK); conditions: cited from earlier work
[8] = tested on: chronic B hepatitis virus load; conditions: woodchuck, in vivo; less efficiently than L-dC or L-dT; cited from earlier work
[9] = 2 mM ATP and 2 mM Mg^2+ (Figure 2)

Molecule: Cc1cn(C2CC(O)C(COP(=O)(O)OP(=O)(O)O)O2)c(=O)[nH]c1=O [L-dTDP]
- catalytic efficiency (phosphoglycerate kinase): 500 M⁻¹ s⁻¹

Molecule: O=c1ccn([C@@H]2O[C@H](COP(=O)(O)O)[C@@H](O)[C@H]2O)c(=O)[nH]1 [D-UMP]
- Km [1]: 6000 ± 2000 µM
- Km [2]: 50 ± 10 µM
- Relative Vmax [2]: 100%

Molecule: Cc1cn([C@@H]2C[C@@H](O)[C@H](CO)O2)c(=O)[nH]c1=O [L-dT, β-L-thymidine]
- catalytic efficiency (hTK2): 1e+07 M⁻¹ s⁻¹
- catalytic efficiency (hdCK): 16000 M⁻¹ s⁻¹
- Kd (hTMPK): 450 µM

Molecule: human AMP kinase 2 (hAK2, mitochondrial adenylate kinase) (Homo sapiens)
- kcat/Km [3]: 70 M⁻¹ s⁻¹
- Km [4]: 6000 ± 1000 µM

Molecule: Nc1ncnc2c1ncn2[C@@H]1O[C@H](COP(=O)(O)O)[C@@H](O)[C@H]1O [D-AMP]
- Km [1]: 140 ± 20 µM
- Km [5]: 80 ± 20 µM

Molecule: Nc1ccn([C@H]2C[C@H](O)[C@@H](COP(=O)(O)O)O2)c(=O)n1 [D-dCMP]
- phosphorylation (in words) [1]: not substrates
- phosphorylation (in words) [5]: not substrates
- Km [2]: 1000 ± 100 µM
- Relative Vmax [2]: 61 ± 4%

Molecule: O=c1ccn([C@H]2C[C@H](O)[C@@H](COP(=O)(O)O)O2)c(=O)[nH]1 [D-dUMP]
- phosphorylation (in words) [1]: not substrates
- phosphorylation (in words) [5]: not substrates
- Km [6, 9]: 170 ± 10 µM
- kcat [6, 9]: 4.8 ± 0.6 s⁻¹
- Km [2]: 1300 ± 300 µM
- Relative Vmax [2]: 5.1 ± 0.5%
- Kd (hTMPK; read-out: dissociation constant KD, calculated from IC50 with Equation (1)): 150 µM

Molecule: [N-]=[N+]=N[C@@H]1[C@H](O)[C@@H](COP(=O)(O)O)O[C@H]1n1ccc(=O)[nH]c1=O [N3-D-dUMP]
- phosphorylation (in words) [1]: did not significantly phosphorylate
- phosphorylation (in words) [5]: did not significantly phosphorylate
- phosphorylation (in words) [6]: did not significantly phosphorylate
- substrate inhibition at high concentration (in words) [2]: did not give rise to substrate inhibition
- Km [2]: 900 ± 200 µM
- Relative Vmax [2]: 89 ± 6%

Molecule: Nc1ccn([C@@H]2CS[C@H](COP(=O)(O)O)O2)c(=O)n1 [L-3TCMP]
- Km ([7]; for comparison): 150 ± 20 µM
- Relative Vmax ([7]; relative to D-CMP): 27%

Molecule: Nc1ncnc2c1ncn2[C@@H]1C[C@@H](O)[C@H](CO)O1 [L-dA]
- effect on virus load (in words) [8]: reduced the virus load

Molecule: Nc1ncnc2c1ncn2[C@H]1C[C@H](O)[C@@H](COP(=O)(O)O)O1 [D-dAMP]
- Km [1]: 1500 ± 300 µM
- Km [5]: 210 ± 50 µM
